Data on twelve molecules can be found in patent US4581453A, “Guanidinothiazole derivatives containing alkylene bridges, and their use for influencing lipid metabolism” (Bayer Aktiengesellschaft, priority 1982, dated 1986).

For test [1], the system named is proliferation of the intima (arteria carotis comm.). The note with it: rat; heparin following parenteral administration; cited from earlier work.
Test [2] has as its system platelet aggregation in rat PRP. In words: Platelet aggregation-inhibiting action (PAH) ex vivo, thromboatherosclerosis experiment. Particulars: po, 1.5 h, read-out: PAH ex vivo: Activity, ED50 (dose/concentration range). The class given is in vivo. As to the method: The change in optical density of the sample of PRP was recorded over a period of 6 minutes and was determined via the reading after 6 minutes. The percentage inhibition is calculated from the corresponding readings. Moreover, the platelet aggregation was also determined in the context of the thromboatherosclerosis experiment. In carrying out these experiments, the active substance was administered to the animals orally in a Tylose suspension over a period of 10 days. On the 10th day, the animals were exsanguinated 90 minutes after the oral administration of the substance, and the PRP was isolated by means of centrifugation. After the PRP has been isolated, in vitro measurement of the aggregation inhibition starts, analogously to the process which has been described for the in vitro experiments; but without pre-incubation of the samples. 3 parts of rat PRP were also diluted with one part of physiological saline solution.
Atherosclerotic plaques are induced in rats by combination of two noxae (risk factors), that is to say vascular lesion and hyperlipaemia. By supercooling of the arteria carotis comm. (2 minutes, -10° C.), partial or complete endothelial scaling occurs in a locally restricted area. Proliferation of the intima occurs within 10 days, which is a relatively short period for such experiments, and largely corresponds to the early stages of atherosclerotic plaques in humans. The proliferation zones are removed and weighed. The moist weight in the supercooled segment of 1 cm is about 200-300 μg. The animals are additionally given a high-fat diet having the following composition: […]

The next test relates to liver cholesterol. In words: Cholesterol loading test. The class given is in vivo, Wistar rats. The note with it: rat, 24 hours. As to the method: Cholesterol loading tests were carried out on conscious male or female Wistar rats weighing between 130-230 g.
Cholesterol and the substance to be tested were simultaneously administered orally in 0.75% strength tragacanth suspension. After 24 hours, the animals were sacrificed and the cholesterol content of the liver was determined. Cholesterol was determined by the Liebermann-Burchard method using the test combination of Boehringer Mannheim. Control animals received a corresponding volume of cholesterol/tragacanth suspension without the test substance. To monitor the rise in cholesterol as a result of cholesterol loading, tragacanth suspension containing no cholesterol was administered orally to another control group.

The test system of a further test is Aspergillus fumigatus. In words: Antimycetic in vitro activity, series dilution test. In kind it is cell-based. Particulars: Sabourands' milieu d'epreuve, 96 hours, 20° C.; for MIC: read-out: Minimum inhibitory concentration. Here is the method:
(§1) The in vitro tests were carried out in a series dilution test using germ inocula of on average 5×10^4 germs/ml of substrate. The nutrient medium used was
(§2) (a) Sabourands' milieu d'epreuve for dermatophytes and moulds; and
(§3) (b) meat extract/dextrose broth for yeasts.
(§4) The incubation temperature was 20° C. and the incubation time was 24 to 96 hours for yeasts and 96 hours for dermatophytes and moulds.

The subject of a further test is Torulopsis glabrata. Described as above. In kind it is cell-based. The note with it: meat extract/dextrose broth, 24 to 96 hours, 20° C.; for MIC: Nakaseomyces glabratus, read-out: Minimum inhibitory concentration. Here is the method:
as §1, §2, §3, §4

Another test deals with Microsporum canis. Described as above. The class given is cell-based. The note with it: Sabourands' milieu d'epreuve, 96 hours, 20° C.; for MIC: read-out: Minimum inhibitory concentration. As to the method:
as §1, §2, §3, §4

Test [3] relates to Trichophyton mentagrophytes. Described as above. In kind it is cell-based. The note with it: Sabourands' milieu d'epreuve, 96 hours, 20° C.; for MIC: read-out: Minimum inhibitory concentration. Here is the method:
as §1, §2, §3, §4

A further test deals with Candida albicans. The test is described as above. In kind it is cell-based. The note with it: meat extract/dextrose broth, 24 to 96 hours, 20° C.; for MIC: read-out: Minimum inhibitory concentration. As to the method: as §1, §2, §3, §4
Test [4] concerns proliferation of the intima (arteria carotis comm.). In words: Anti-atherosclerotic action, thromboatherosclerosis model. The class given is in vivo. The note with it: po; rat, per orally; read-out: anti-atherosclerotic: Activity, ED50 (dose/concentration range). As to the method: Because of some fluid transitions between atherosclerosis and thrombosis, we have called the method used "thromboatherosclerosis model".
Folia angiologica 28, 85 (1980).
Atherosclerotic plaques are induced in rats by combination of two noxae (risk factors), that is to say vascular lesion and hyperlipaemia. By supercooling of the arteria carotis comm. (2 minutes, -10° C.), partial or complete endothelial scaling occurs in a locally restricted area. Proliferation of the intima occurs within 10 days, which is a relatively short period for such experiments, and largely corresponds to the early stages of atherosclerotic plaques in humans. The proliferation zones are removed and weighed. The moist weight in the supercooled segment of 1 cm is about 200-300 μg. The animals are additionally given a high-fat diet having the following composition:
52% of normal feed (Altromin®).
The lipid deposits are stained with the fat-soluble dyestuff Sudan IV and can be determined as an additional parameter.

A further test concerns the target T1, Cyclooxygenase (Homo sapiens, UniProt P23219).
T1 construct: endogenous in cells; host or cells: human platelets
In words: Arachidonic acid metabolism in platelets: cyclooxygenase inhibition. The note with it: 3H-arachidonic acid, read-out: Cyclooxygenase inhibition: Activity, ED50 (dose/concentration range) (converted). The class given is cell-based. The text has this: In human platelets, ^3 H-arachidonic acid is converted into the products of the cyclooxygenase/thromboxane synthetase path, in particular thromboxane A2, and those of the lipoxygenase path, HETE. Separation of the resulting products by thin layer chromatography gives a characteristic pattern. Inhibitors of the individual enzymatic reactions modify this pattern in a typical manner (Bailey, J. M. et al., Prostaglandins 13, 479-492 (1977)). The action of the compounds according to the invention on individual reactions in arachidonic acid metabolism are shown in Table 2.

In brackets after ≈: the same amount, converted by molar mass. Structures can show the parent of a compound that is named as a salt.

T1 sequence (P23219 24-599): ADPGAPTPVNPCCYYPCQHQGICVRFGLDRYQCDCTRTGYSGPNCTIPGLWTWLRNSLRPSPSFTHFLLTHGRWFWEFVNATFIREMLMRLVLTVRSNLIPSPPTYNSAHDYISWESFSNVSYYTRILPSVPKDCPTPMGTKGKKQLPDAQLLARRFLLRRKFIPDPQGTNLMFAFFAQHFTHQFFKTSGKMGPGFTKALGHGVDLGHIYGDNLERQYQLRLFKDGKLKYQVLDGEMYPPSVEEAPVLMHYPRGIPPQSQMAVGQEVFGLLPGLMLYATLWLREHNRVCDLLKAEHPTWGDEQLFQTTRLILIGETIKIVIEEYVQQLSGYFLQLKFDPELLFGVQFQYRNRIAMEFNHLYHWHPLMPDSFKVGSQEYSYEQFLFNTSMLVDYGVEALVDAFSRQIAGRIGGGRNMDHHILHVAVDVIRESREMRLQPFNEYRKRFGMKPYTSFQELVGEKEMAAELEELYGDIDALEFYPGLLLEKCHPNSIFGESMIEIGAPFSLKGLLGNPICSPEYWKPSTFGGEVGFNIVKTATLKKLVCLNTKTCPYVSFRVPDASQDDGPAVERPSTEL

Regarding heparin, the “effectiveness in thromboatherosclerosis model (in words), prior agents” value (shortened to “effectiveness”) in test [1] is “effective”.

As for `Cc1nc(N=C2NCCCN2)sc1C(=O)Nc1ccc(Cl)cc1` [Example 17], the ED50 in test [2] amounted to 100 mg/kg. The “Reduction in the increase in liver cholesterol in percent in comparison with the control, following oral cholesterol loading” value with liver cholesterol (100 mg/kg per orally) is listed as 56.1%.

Turning to `c1ccc2c(-c3csc(N=C4NCCCN4)n3)cccc2c1` [Example 24], the MIC in the test with Aspergillus fumigatus is < 1 µg/mL; in the test with Torulopsis glabrata, 8 µg/mL (≈ 25.9 µM); in the test on Microsporum canis, < 1 µg/mL; in test [3], < 1 µg/mL; in the test with Candida albicans, 2 µg/mL (≈ 6.48 µM).

Consider `c1cc2c(cc1-c1csc(N=C3NCCCN3)n1)CCCC2` [Example 25], for which the ED50 in test [2] was 100 mg/kg. The “Reduction in the increase in liver cholesterol in percent in comparison with the control, following oral cholesterol loading” value in the test with liver cholesterol (10 mg/kg per orally) was determined as 65.3%; with liver cholesterol (30 mg/kg per orally) it was 78.1%.

With neomycin, in test [1], the “effectiveness” value is reported as “ineffective”.

Consider `c1ccc(-c2csc(N=C3NCCCN3)n2)cc1` [Example 22], for which the MIC was < 1 µg/mL in the test with Aspergillus fumigatus; 32 µg/mL (≈ 124 µM) with Torulopsis glabrata; < 1 µg/mL with Microsporum canis; < 1 µg/mL in test [3]; 4 µg/mL (≈ 15.5 µM) in the test on Candida albicans.

With `Cc1cc(Cl)ccc1-c1csc(N=C2NCCCN2)n1` [Example 33, 2-(N-(4'-(4"-Chloro-2"-methylphenyl)-thiazol-2'-yl)imino)-hexahydropyrimidine hydrochloride], the MIC in the test on Aspergillus fumigatus amounted to 2 µg/mL; in the test with Torulopsis glabrata it was 16 µg/mL; with Microsporum canis it was 2 µg/mL; in test [3], 2 µg/mL; in the test on Candida albicans, 2 µg/mL.

`CN1CCCNC1=Nc1nc(-c2ccccc2)cs1` [Example 49]: the ED50 in test [2] and in test [4] was 100 mg/kg throughout. Besides, the IC50 at Cyclooxygenase is 36.7 µM.

For the molecule `CC(=O)N1CCN(c2ccc(OCC3COC(Cn4ccnc4)(c4ccc(Cl)cc4Cl)O3)cc2)CC1` (centres unmarked) [Ketoconazol, ketoconazol, reference compound], the MIC is 16 µg/mL (≈ 30.1 µM) in the test with Aspergillus fumigatus; 1 µg/mL (≈ 1.88 µM) in the test with Torulopsis glabrata; 4 µg/mL (≈ 7.53 µM) in the test with Microsporum canis; < 1 µg/mL in test [3]; < 1 µg/mL in the test on Candida albicans.

As for `Clc1ccc(C2(Cn3ccnc3)OCC(COc3ccc(-c4ccccc4)cc3)O2)c(Cl)c1` (centres unmarked) [Doconazol, doconazol, reference compound], the Minimum inhibitory concentration is 4 µg/mL (≈ 8.31 µM) in the test with Aspergillus fumigatus; < 1 µg/mL in the test with Torulopsis glabrata; 8 µg/mL (≈ 16.6 µM) in the test on Microsporum canis; < 1 µg/mL in [3]; < 1 µg/mL with Candida albicans.

Take `O=C(O)c1cccnc1` [nicotinic acid]: in [1], the “effectiveness” value is given as “ineffective”.

Consider `Clc1ccc(-c2csc(N=C3NCCCN3)n2)c(Cl)c1` [Example 27], for which the MIC with Aspergillus fumigatus was 8 µg/mL (≈ 24.4 µM); in the test with Torulopsis glabrata, 16 µg/mL (≈ 48.9 µM); in the test with Microsporum canis, < 1 µg/mL; in test [3] it was < 1 µg/mL; with Candida albicans it was < 1 µg/mL.
